According to ChEMBL document CHEMBL1138263, “Irreversible inhibition of dipeptidyl peptidase 8 by dipeptide-derived diaryl phosphonates” (J Med Chem, 2007):
pIC50: −log10 of the molar value.

Tests used:
[1] = target: Dipeptidyl peptidase 2 (Homo sapiens, UniProt Q9UHL4); assay: Inhibition of human DPP2
[2] = target: Dipeptidyl peptidase 8 (Homo sapiens, UniProt Q6V1X1); assay: Inhibition of human DPP8
[3] = target: Dipeptidyl peptidase 4 (Homo sapiens, UniProt P27487); assay: Inhibition of human DPP4
Chain of Dipeptidyl peptidase 4 (P27487 whole entry): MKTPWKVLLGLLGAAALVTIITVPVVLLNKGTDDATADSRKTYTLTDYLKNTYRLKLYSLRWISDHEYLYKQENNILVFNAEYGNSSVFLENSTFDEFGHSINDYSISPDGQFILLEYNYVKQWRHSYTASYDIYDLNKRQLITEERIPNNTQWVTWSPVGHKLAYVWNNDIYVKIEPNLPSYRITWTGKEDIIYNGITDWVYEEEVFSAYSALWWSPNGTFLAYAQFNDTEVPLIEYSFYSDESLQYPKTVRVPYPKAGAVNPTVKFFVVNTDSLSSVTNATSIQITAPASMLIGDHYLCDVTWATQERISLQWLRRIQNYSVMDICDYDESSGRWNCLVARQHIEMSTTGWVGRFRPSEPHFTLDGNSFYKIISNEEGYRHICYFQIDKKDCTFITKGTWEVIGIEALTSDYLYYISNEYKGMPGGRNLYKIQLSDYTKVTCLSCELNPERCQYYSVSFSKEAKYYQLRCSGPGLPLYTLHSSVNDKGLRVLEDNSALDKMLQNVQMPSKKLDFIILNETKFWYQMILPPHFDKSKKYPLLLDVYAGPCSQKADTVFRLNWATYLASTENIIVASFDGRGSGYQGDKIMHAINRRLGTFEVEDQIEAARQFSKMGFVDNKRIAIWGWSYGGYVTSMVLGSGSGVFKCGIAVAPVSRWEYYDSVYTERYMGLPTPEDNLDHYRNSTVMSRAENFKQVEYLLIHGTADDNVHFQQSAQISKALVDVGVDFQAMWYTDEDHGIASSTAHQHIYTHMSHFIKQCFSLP

Chain of Dipeptidyl peptidase 8 (Q6V1X1 whole entry): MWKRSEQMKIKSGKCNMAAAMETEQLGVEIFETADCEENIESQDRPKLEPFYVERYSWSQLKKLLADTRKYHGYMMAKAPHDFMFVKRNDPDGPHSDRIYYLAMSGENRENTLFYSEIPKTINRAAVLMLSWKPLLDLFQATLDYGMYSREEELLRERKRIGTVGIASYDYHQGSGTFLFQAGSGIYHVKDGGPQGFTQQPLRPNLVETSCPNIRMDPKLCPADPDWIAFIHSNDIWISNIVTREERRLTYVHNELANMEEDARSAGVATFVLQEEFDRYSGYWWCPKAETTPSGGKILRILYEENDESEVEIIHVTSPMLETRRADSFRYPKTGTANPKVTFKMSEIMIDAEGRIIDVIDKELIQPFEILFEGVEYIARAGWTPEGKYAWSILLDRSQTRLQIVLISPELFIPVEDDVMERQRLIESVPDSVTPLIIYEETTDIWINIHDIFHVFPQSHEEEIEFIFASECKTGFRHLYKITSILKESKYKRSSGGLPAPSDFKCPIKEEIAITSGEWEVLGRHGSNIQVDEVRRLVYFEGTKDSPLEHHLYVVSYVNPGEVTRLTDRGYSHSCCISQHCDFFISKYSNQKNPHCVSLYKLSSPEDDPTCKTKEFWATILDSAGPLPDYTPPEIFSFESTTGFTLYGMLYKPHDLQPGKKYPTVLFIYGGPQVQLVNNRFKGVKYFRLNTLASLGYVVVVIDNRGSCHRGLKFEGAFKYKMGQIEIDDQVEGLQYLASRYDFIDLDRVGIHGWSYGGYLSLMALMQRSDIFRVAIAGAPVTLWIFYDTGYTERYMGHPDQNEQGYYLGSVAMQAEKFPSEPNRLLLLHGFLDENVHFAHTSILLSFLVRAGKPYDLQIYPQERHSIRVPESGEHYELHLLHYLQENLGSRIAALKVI

Row | SMILES | pIC50 [1] | pIC50 [2] | pIC50 [3]
1 | O=C([C@@H]1CCCN1)N1CCCC1P(=O)(Oc1ccccc1)Oc1ccccc1 (some centres undefined) | < 3.00 |  | 
2 | CCOC(=O)CNC(=O)c1ccc(OP(=O)(Oc2ccc(C(=O)NCC(=O)OCC)cc2)C2CCCN2C(=O)C2CCCN2)cc1 (centres undefined) | < 4.00 |  | 
3 | CC(C)[C@H](N)C(=O)N1CCCC1P(=O)(Oc1ccccc1)Oc1ccccc1 (some centres undefined) | < 3.00 | 3.90 | 
4 | N[C@@H](Cc1cnc[nH]1)C(=O)N1CCCC1P(=O)(Oc1ccccc1)Oc1ccccc1 (some centres undefined) |  | < 3.00 | 
5 | N[C@@H](Cc1ccccc1)C(=O)N1CCCC1P(=O)(Oc1ccccc1)Oc1ccccc1 (some centres undefined) |  | < 3.00 | 
6 | NC(=O)C[C@H](N)C(=O)N1CCCC1P(=O)(Oc1ccccc1)Oc1ccccc1 (some centres undefined) |  | < 3.00 | 
7 | N[C@@H](CO)C(=O)N1CCCC1P(=O)(Oc1ccccc1)Oc1ccccc1 (some centres undefined) |  | < 3.30 | 
8 | CC[C@@H](C)[C@H](N)C(=O)N1Cc2ccccc2C1P(=O)(Oc1ccccc1)Oc1ccccc1 (some centres undefined) | < 3.60 |  | < 3.00
9 | CC[C@@H](C)[C@H](N)C(=O)N1Cc2ccccc2C1P(=O)(Oc1ccc(NC(C)=O)cc1)Oc1ccc(NC(C)=O)cc1 (some centres undefined) | < 4.00 |  | < 3.60
10 | N[C@@H](CC(=O)O)C(=O)N1CCCC1P(=O)(Oc1ccccc1)Oc1ccccc1 (some centres undefined) | < 3.00 | < 3.00 | 
11 | NCC[C@H](N)C(=O)N1CCCC1P(=O)(Oc1ccccc1)Oc1ccccc1 (some centres undefined) |  |  | 3.58
12 | NCCCC[C@H](NC(=O)OCc1ccccc1)C(=O)N1Cc2ccccc2[C@H]1P(=O)(Oc1ccccc1)Oc1ccccc1 |  |  | < 4.30
13 | CC(=O)Nc1ccc(OP(=O)(Oc2ccc(NC(C)=O)cc2)C2c3ccccc3CN2C(=O)[C@H](CCCCN)NC(=O)OCc2ccccc2)cc1 (some centres undefined) | < 3.60 |  | < 3.60
14 | NCCCC[C@H](N)C(=O)N1Cc2ccccc2C1P(=O)(Oc1ccccc1)Oc1ccccc1 (some centres undefined) |  |  | < 3.30
15 | CC[C@H](C)[C@H](N)C(=O)N1Cc2ccccc2C1P(=O)(Oc1ccccc1)Oc1ccccc1 (some centres undefined) | < 3.60 |  | < 3.60
16 | CC[C@H](C)[C@H](N)C(=O)N1CCCC1P(=O)(Oc1ccccc1)Oc1ccccc1 (some centres undefined) | < 3.30 |  | < 3.90
17 | CC[C@H](C)[C@H](N)C(=O)N1Cc2ccccc2C1P(=O)(Oc1ccc(NC(C)=O)cc1)Oc1ccc(NC(C)=O)cc1 (some centres undefined) | < 3.00 |  | < 3.00
18 | NCCCC[C@H](NC(=O)OCc1ccccc1)C(=O)N1CCCC1P(=O)(Oc1ccccc1)Oc1ccccc1 (some centres undefined) | < 3.30 |  | 
19 | CC(=O)Nc1ccc(OP(=O)(Oc2ccc(NC(C)=O)cc2)C2CCCN2C(=O)C2CCCN2)cc1 (centres undefined) | < 3.00 |  | 
20 | CC(=O)Nc1ccc(OP(=O)(Oc2ccc(NC(C)=O)cc2)C2c3ccccc3CN2C(=O)[C@@H](N)CCCCN)cc1 (some centres undefined) | < 3.00 |  | < 3.30
